4 molecules from the NIST ThermoML archive (doi:10.1016/j.tca.2018.04.014) can be followed below.

Structures are written as SMILES. ± gives the expanded uncertainty stated by the source.

The nature of series [1]: Molar enthalpy of transition or fusion. Conditions: DSC.
The conditions of series [2]: DSC.

For the molecule `CC1(C)[C@H]2CC[C@]1(C)C(=O)C2` [(1S)-1,7,7-trimethylbicyclo[2.2.1]heptan-2-one], the “Molar enthalpy of transition or fusion” value worked out at 0.0382 ± 0.17 kcal/mol in series [1] (Crystal 2) and 3.17 ± 0.184 kcal/mol in series [1] (Crystal 3). The figures for the Triple point temperature in series [2] (Crystal 1), in series [2] (Crystal 2) and in series [2] (Crystal 3) were 453.9 ± 3.1 K, 375.3 ± 3.1 K and 246.3 ± 3.1 K, respectively.
Take `CC1(C)[C@@H]2CC[C@@]1(C)C(=O)C2` [d-camphor]: the “Molar enthalpy of transition or fusion” value in series [1] (Crystal 2) is 0.0359 ± 0.17 kcal/mol; in series [1] (Crystal 3) it was 2.68 ± 0.182 kcal/mol. Also, the Triple point temperature was 452.7 ± 3.1 K in series [2] (Crystal 1), 372.3 ± 3.1 K in series [2] (Crystal 2) and 242.8 ± 3.1 K in series [2] (Crystal 3).
The corresponding values for `CC1(C)[C@H]2CC[C@]1(C)[C@H](O)C2` [(1S-endo)-1,7,7-trimethylbicyclo[2.2.1]heptan-2-ol] are 0.715 ± 0.174 kcal/mol, 0.172 ± 0.172 kcal/mol, 479.7 ± 3.1 K, 347.4 ± 3.1 K and 212.3 ± 3.1 K.
With `CC1(C)[C@@H]2CC[C@@]1(C)[C@@H](O)C2` [d-borneol], the entries for the “Molar enthalpy of transition or fusion” value in series [1] (Crystal 2) and in series [1] (Crystal 3) were 0.724 ± 0.174 kcal/mol and 0.179 ± 0.172 kcal/mol, respectively. For the same molecule, the values for the Triple point temperature in series [2] (Crystal 1), in series [2] (Crystal 2) and in series [2] (Crystal 3) were 481.6 ± 3.1 K, 346.7 ± 3.1 K and 213.5 ± 3.1 K, respectively.
